Key:
[1] = Percent of parent tracer remaining in monkey plasma (plasma half-life comparison, TLC/gamma counting); format: in vivo, rhesus monkey; settings: for % parent tracer remaining in monkey plasma / Amount of tracer remaining in plasma relative to the protonated tracer: rhesus monkey; for Amount of tracer remaining in plasma relative to the protonated tracer: versus Compound A
Experimental: To compare the plasma half-life of [^18F][2-fluoromethoxy-5-(5-trifluoromethyl-tetrazol-1-yl)-benzyl]-([2S,3S]-2-phenyl-piperidin-3-yl)-amine (Compound A) and [^18F][2-fluorodideuteromethoxy-5-(5-trifluoromethyl-tetrazol-1-yl)-benzyl]-([2S,3S]-2-phenyl-piperidin-3-yl)-amine (Compound B) in rhesus monkey, ˜5 mCi of each radiotracer (in saline) was injected by iv into an anesthetized monkey. At various time points, whole blood was drawn, mixed with 0.02 mL of acetonitrile and centrifuged for 3-5 minutes at 5000 rpm. A 0.02 mL aliquot of the acetonitrile extract was spotted on a 5×7 cm TLC plate along with the cold standard and developed using 60:40:0.1 ethyl acetate:methanol:triethylamine. The TLC plate was cut into four sections pertaining to the origin, to determine the amount of fluoride present, the section between the origin and where the standard eluted, to determine polar metabolites, the section where the parent compound eluted, to determine the amount of parent compound remaining, and the area between the parent compound and the solvent front for nonpolar metabolites. The TLC strips were then counted in a gamma counter to determine the number of counts for each section of TLC plate. The percentage of the total counts that were due to the remaining parent compound was determined. […] With the higher prolonged plasma levels of the deuterated tracer, more time is available for a larger specific signal to develop, and for the tracer to accumulate in brain regions that have a low receptor concentration and could be difficult to image using the protonated tracer.

NK1 receptor = target: T1, NK1 receptor (Macaca mulatta, UniProt F7GQV6); assay: Chase study with an unlabelled NK1 antagonist, PET regions of interest (chaseability); format: in vivo, rhesus monkey; settings: for Remaining Specific Binding in Rhesus Monkey after 1 mpk Chase at 180 Minutes with an NK1 Antagonist: striatum minus cerebellum
T1 construct: from tissue; host or cells: brain (striatum and other regions) of a living rhesus monkey, PET imaging
Experimental: A bolus of an unlabelled NK1 antagonist was administered 180 minutes after a bolus injection of either tracer. From the resulting images, regions of interest were drawn to determine the amount of radioactivity present in different brain regions. […] Also, using the 70% level of chase as a comparison (30% remaining specific binding), the fluoroethoxy compound reaches this level ˜50 minutes before the dideuterofluoromethoxy analog reaches this same level. Because the fluoroethoxy compound [^18F][2-fluoroethoxy-5-(5-trifluoromethyl-tetrazol-1-yl)-benzyl]-([2S,3S]-2-phenyl-piperidin-3-yl)-amine chases from the striatum faster than the fluoromethoxy analog, a more accurate picture of what the true receptor occupancy is can be obtained using the fluoroethoxy analog.

[2] = Brain levels of the tracer; format: in vivo; settings: comparison in words
[3] = 5 minutes after iv injection of ~5 mCi
[4] = 15 minutes after iv injection of ~5 mCi
[5] = 30 minutes after iv injection of ~5 mCi
[6] = 45 minutes after iv injection of ~5 mCi
[7] = 60 minutes after iv injection of ~5 mCi
[8] = 120 minutes after iv injection of ~5 mCi
[9] = 180 minutes after iv injection of ~5 mCi

T1 sequence (F7GQV6 1-407): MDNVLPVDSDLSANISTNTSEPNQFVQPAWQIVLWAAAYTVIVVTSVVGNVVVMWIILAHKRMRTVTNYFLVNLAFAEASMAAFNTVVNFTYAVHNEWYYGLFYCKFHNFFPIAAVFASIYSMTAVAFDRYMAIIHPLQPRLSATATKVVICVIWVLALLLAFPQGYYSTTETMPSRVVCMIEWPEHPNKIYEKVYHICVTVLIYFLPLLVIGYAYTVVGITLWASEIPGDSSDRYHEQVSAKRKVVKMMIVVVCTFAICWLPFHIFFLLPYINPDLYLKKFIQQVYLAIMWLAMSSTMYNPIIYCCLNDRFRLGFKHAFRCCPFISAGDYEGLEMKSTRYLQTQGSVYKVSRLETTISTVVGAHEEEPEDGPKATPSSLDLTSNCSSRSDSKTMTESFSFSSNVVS

## FC(F)(F)c1nnnn1-c1ccc(OC[18F])c(CN[C@H]2CCCN[C@H]2c2ccccc2)c1 [Compound A, [^18F][2-fluoromethoxy-5-(5-trifluoromethyl-tetrazol-1-yl)-benzyl]-([2S,3S]-2-phenyl-piperidin-3-yl)-amine, reference compound]
[1]; [3]
  % parent tracer remaining in monkey plasma: 72%
[1]; [4]
  % parent tracer remaining in monkey plasma: 55%
[1]; [5]
  % parent tracer remaining in monkey plasma: 38%
[1]; [6]
  % parent tracer remaining in monkey plasma: 35%
[1]; [7]
  % parent tracer remaining in monkey plasma: 25%
[1]; [8]
  % parent tracer remaining in monkey plasma: 16%
[1]; [9]
  % parent tracer remaining in monkey plasma: 9%

## [2H]C([2H])([18F])Oc1ccc(-n2nnnc2C(F)(F)F)cc1CN[C@H]1CCCN[C@H]1c1ccccc1 [Compound B, [^18F][2-fluorodideuteromethoxy-5-(5-trifluoromethyl-tetrazol-1-yl)-benzyl]-([2S,3S]-2-phenyl-piperidin-3-yl)-amine]
[1]; [3]
  % parent tracer remaining in monkey plasma: 91%
[1]; [4]
  % parent tracer remaining in monkey plasma: 87%
[1]; [5]
  % parent tracer remaining in monkey plasma: 75%
[1]; [6]
  % parent tracer remaining in monkey plasma: 39%
[1]; [7]
  % parent tracer remaining in monkey plasma: 41%
[1]; [8]
  % parent tracer remaining in monkey plasma: 23%
[1]; [9]
  % parent tracer remaining in monkey plasma: 20%
[1]; all time points examined
  Amount of tracer remaining in plasma relative to the protonated tracer: more of the deuterated tracer remaining in the plasma than the protonated tracer
[1]; comparison in words
  Metabolic stability relative to the [18F]fluoromethoxy compound of U.S. Pat. No. 6,241,964: metabolically more stable
  Plasma half-life relative to the [18F]fluoromethoxy compound of U.S. Pat. No. 6,241,964: longer plasma half-life
[1]; end of the experiment (3 hours)
  Amount of tracer remaining in plasma relative to the protonated tracer: twice as much
NK1 receptor; 195 minutes after tracer
  Remaining Specific Binding in Rhesus Monkey after 1 mpk Chase at 180 Minutes with an NK1 Antagonist: ~96%
NK1 receptor; 205 minutes after tracer
  Remaining Specific Binding in Rhesus Monkey after 1 mpk Chase at 180 Minutes with an NK1 Antagonist: ~85%
NK1 receptor; 230 minutes after tracer
  Remaining Specific Binding in Rhesus Monkey after 1 mpk Chase at 180 Minutes with an NK1 Antagonist: ~55%
NK1 receptor; 270 minutes after tracer
  Remaining Specific Binding in Rhesus Monkey after 1 mpk Chase at 180 Minutes with an NK1 Antagonist: ~30%
NK1 receptor; striatum, rhesus monkey
  Time at which tracer begins to chase (is displaced from the receptor) after administration of the unlabelled antagonist: about 30 minutes
[2]
  Brain levels of the tracer relative to the [18F]fluoromethoxy compound: relatively higher brain levels

## FC(F)(F)c1nnnn1-c1ccc(OCC[18F])c(CN[C@H]2CCCN[C@H]2c2ccccc2)c1 [Compound C, [^18F][2-fluoroethoxy-5-(5-trifluoromethyl-tetrazol-1-yl)-benzyl]-([2S,3S]-2-phenyl-piperidin-3-yl)-amine]
NK1 receptor; 195 minutes after tracer
  Remaining Specific Binding in Rhesus Monkey after 1 mpk Chase at 180 Minutes with an NK1 Antagonist: ~85%
NK1 receptor; 205 minutes after tracer
  Remaining Specific Binding in Rhesus Monkey after 1 mpk Chase at 180 Minutes with an NK1 Antagonist: ~55%
NK1 receptor; 220 minutes after tracer
  Remaining Specific Binding in Rhesus Monkey after 1 mpk Chase at 180 Minutes with an NK1 Antagonist: ~30%
NK1 receptor; striatum, rhesus monkey
  Time at which tracer begins to chase (is displaced from the receptor) after administration of the unlabelled antagonist: almost immediately
NK1 receptor; striatum, rhesus monkey, versus Compound B
  Time by which the 70% level of chase (30% remaining specific binding) is reached before the dideuterofluoromethoxy analog: ~50 minutes

## [^18F][2-fluoroethoxy-5-(5-trifluoromethyl-tetrazol-1-yl)-benzyl]-([2S,3S]-2-phenyl-piperidin-3-yl)-amine [Compound C]
NK1 receptor; comparison in words
  Displacement from the NK1 receptor when unlabelled compounds are administered, relative to the [18F]fluoromethoxy compound: faster
